This is an account of results in ChEMBL document CHEMBL4052598, “Discovery of C-Glycosylpyranonaphthoquinones in Streptomyces sp. MBT76 by a Combined NMR-Based Metabolomics and Bioinformatics Workflow” (2017).

The source made the active and inactive calls. No cut-off for these calls is given here.

Common to all, as to type: functional
The subject of assay [1] is Staphylococcus aureus. Put plainly: Antimicrobial activity against Staphylococcus aureus CECT976 assessed as growth inhibition zone after 18 hrs by disc diffusion method.
For assay [2], the system named is Bacillus subtilis. Put plainly: Antimicrobial activity against Bacillus subtilis subsp. subtilis str. 168 assessed as growth inhibition zone after 18 hrs by disc diffusion method. In general terms: A growth-free zone around the sample is the usual read-out of agar diffusion tests.
Assay [3] relates to Pseudomonas aeruginosa. Kind of assay: Antimicrobial activity against Pseudomonas aeruginosa PAO1 assessed as growth inhibition zone after 18 hrs by disc diffusion method.
For assay [4], the system named is Escherichia coli. Kind of assay: Antimicrobial activity against Escherichia coli JM109 assessed as growth inhibition zone after 18 hrs by disc diffusion method.

Regarding `CC1(C)S[C@@H]2[C@H](NC(=O)[C@H](N)c3ccccc3)C(=O)N2[C@H]1C(=O)O` [AMPICILLIN], the “inhibition zone (IZ)” value in assay [1] amounted to 10 mm; in assay [2], 23 mm; in assay [3], 7 mm; in assay [4] it was 20 mm.

For `CN[C@H]1CC[C@H](c2ccc(O)c3c2C(=O)C24OC2([C@@H](C)O[C@@H]2CC(=O)O[C@@H]24)[C@H]3O)O[C@@H]1C` (stereo partly specified), the inhibition result in assay [1] and in assay [2] was “Active” each time. Also, the inhibition entry in assay [3] and in assay [4] was “inactive” each time.

With `CN[C@@H]1[C@@H](O[C@H]2O[C@H](CO)[C@@H](N)[C@H](O)[C@H]2O)OC2C[C@@H](N)[C@@H](O[C@H]3[C@H](O)[C@@H](O)[C@H](N)C[C@@H]3N)OC2[C@@H]1O` (stereo partly specified) [APRAMYCIN], the “inhibition zone (IZ)” value in assay [1] was 7 mm; in assay [2], 10 mm; in assay [3], 15 mm; in assay [4], 7 mm.

Take `CN[C@H]1CC[C@H](c2ccc(O)c3c2C(=O)C24OC2([C@@H](C)O[C@H](CC(=O)O)[C@@H]4O)[C@H]3O)O[C@@H]1C` (stereo partly specified): the inhibition result in assay [1] and in assay [2] was “Active” throughout. For the same compound, the inhibition result in assay [3] and in assay [4] was “inactive” throughout.
